Laboratory results from paper PMC7269146, “Jingzhaotoxin-X, a gating modifier of Kv4.2 and Kv4.3 potassium channels purified from the venom of the Chinese tarantula Chilobrachys jingzhao” (The Journal of Venomous Animals and Toxins Including …, 2020).
Where a SMILES comes first, the peptide text is derived from it. Bridges are numbered along the chain shown (N, C = ends).

Molecular target: T1, Kv4.3 (Rattus norvegicus, UniProt Q62897)
T1 construct: expressed in transfected cells; host or cells: HEK293t
T1 sequence (Q62897 1-655): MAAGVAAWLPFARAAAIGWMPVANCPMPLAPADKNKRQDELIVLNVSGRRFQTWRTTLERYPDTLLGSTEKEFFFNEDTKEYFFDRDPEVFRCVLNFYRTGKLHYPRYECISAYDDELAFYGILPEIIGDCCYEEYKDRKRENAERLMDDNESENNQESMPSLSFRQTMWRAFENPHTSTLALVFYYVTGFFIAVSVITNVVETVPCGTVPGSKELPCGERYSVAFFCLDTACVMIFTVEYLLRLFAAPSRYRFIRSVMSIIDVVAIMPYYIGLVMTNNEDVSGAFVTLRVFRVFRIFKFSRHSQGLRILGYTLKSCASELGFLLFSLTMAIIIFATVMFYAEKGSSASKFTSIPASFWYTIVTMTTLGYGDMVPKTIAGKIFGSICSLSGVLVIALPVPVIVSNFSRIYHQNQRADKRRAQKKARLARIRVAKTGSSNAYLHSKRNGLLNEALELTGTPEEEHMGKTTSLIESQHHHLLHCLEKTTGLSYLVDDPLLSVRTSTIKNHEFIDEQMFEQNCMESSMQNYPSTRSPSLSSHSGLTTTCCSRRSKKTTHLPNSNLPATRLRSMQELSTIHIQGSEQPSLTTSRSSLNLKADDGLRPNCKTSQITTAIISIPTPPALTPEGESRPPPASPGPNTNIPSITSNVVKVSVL
Assay: microelectrode voltage-clamp, Xenopus laevis oocytes, Kv4.3
Type: cell-based
Conditions: +20 mV from -90 mV, n = 5, read-out: inhibition of Kv4.3 current
Description: Rat cDNA genes encoding Kv4.2 (Accession: NM_031730.2) and Kv4.3 (Accession: AB003587.1) were subcloned to vector pcDNA3.1. In addition, human cDNA genes encoding Nav1.7 (Accession: DQ857292.1) and Nav1.5 (Accession: AB158469.2) were subcloned to vectors pcDNA3.1-mod and pcDNA3.1, separately. Then, Kv4.2, Kv4.3, Nav1.5 and Nav1.7 constructs were transiently transfected into the human embryonic kidney 293t (HEK293t) cells using lipofectamine 2000 (Invitrogen, USA) in accordance with manufacturer protocols. Thereafter, HEK293 cells were inoculated within Dulbecco’s modified Eagle’s medium (DMEM) containing 10% fetal bovine serum (FBS) at 5% CO2 and 37°C. The Kv4.3 channel and the Kv4.2 counterpart were then transfected in the absence of β subunit. Subsequently, cells were incubated with a DNA-lipofectamine mixture (one reporter plasmid for green fluorescence protein and channel constructs) for 4-6 h, and were washed with the fresh medium.
Briefly, plasmids were linearized, and transcription was carried out according to the standardized protocol. Afterwards, the capped cRNAs that encoded the related ion channels were prepared. […]

## CC(C)C[C@@H]1NC(=O)[C@H](CCCCN)NC(=O)[C@H](Cc2ccc(O)cc2)NC(=O)[C@@H]2CSSC[C@@H]3NC(=O)[C@H](Cc4ccc(O)cc4)NC(=O)[C@H](Cc4ccccc4)NC(=O)CNC(=O)[C@H](C)NC(=O)[C@H](CSSC[C@H](NC(=O)[C@@H](N)CC(C)C)C(=O)N[C@@H](CO)C(=O)N[C@@H](CCCNC(=N)N)C(=O)N[C@@H](CCC(=O)O)C(=O)NCC(=O)N[C@@H](CCC(=O)O)C(=O)N[C@@H](Cc4ccccc4)C(=O)N2)NC(=O)[C@H](CSSC[C@@H](C(=O)N[C@@H](Cc2ccc(O)cc2)C(=O)N[C@@H](CCCNC(=N)N)C(=O)N[C@@H](CC(N)=O)C(=O)O)NC(=O)[C@H](Cc2c[nH]cn2)NC(=O)[C@H](CC(C)C)NC(=O)[C@H](C(C)C)NC(=O)[C@H](Cc2ccccc2)NC(=O)[C@H](C)NC(=O)[C@H](CCCCN)NC3=O)NC(=O)[C@H](CCCCN)NC(=O)[C@H](CCCNC(=N)N)NC1=O [JZTX-X, Jingzhaotoxin-X] (H-LCSREGEFCYKLRKCCAGFYCKAFVLHCYRN-OH; disulfide 2-16, 9-21, 15-28; N-terminus assumed)
  inhibition at 1 µM: 72.4 ± 4.8%
